# Results: publication PMC7449217, “The FDA-Approved Drug Nelfinavir Inhibits Lytic Cell-Free but Not Cell-Associated Nonlytic Transmission of Human Adenovirus” (Antimicrobial Agents and Chemotherapy, 2020)
# pEC50: −log10 of the molar value. Where a name gives a salt, the structure may show the parent alone.
# Tests used:
# HAdV-C2-dE3B-GFP [1] = assay: quantification of infectious progeny in the supernatant, titration on A549 cells; assay type: cell-based, human adenovirus; settings: 1.25 μM, 7 dpi, HAdV-C2-dE3B-GFP-infected A549 cells
# Protocol: A549 cells were seeded at 480,000 cells per 6-well plate in full DMEM and infected at 1,100 PFU HAdV-C2-dE3B-GFP per well the next day. Following 1 h of warm incubation, the supernatant was removed, and cells were washed with PBS and detached by trypsin digestion. Infected cells were centrifuged and resuspended in fresh medium to remove any unbound input virus and seeded at 180,000 cells/12-well plate in medium supplemented with 1.25, 3, or 10 μM nelfinavir or equivalent amounts of the DMSO solvent control. At the indicated times postinfection, the supernatant was harvested and cleared by centrifugation. Two hundred microliters of PBS/well was added to the infected monolayer. Cells were disrupted by three freeze-thaw cycles, and freon extraction was performed. The supernatant and cell lysate were stored at 4°C until titration on naive A549 cells. PFA-fixed, Hoechst-stained cells were imaged at 44 hpi using a 4× objective (NA, 0.20) on an IXM-XL epifluorescence microscope (Molecular Devices, San Jose, CA, USA). GFP-positive infected cells were classified based on the median nuclear GFP intensity using automated image analysis by CellProfiler ([178]).
# Four hundred eighty thousand A549 cells were seeded per 6-well dish, inoculated with 1,100 PFU HAdV-C2-dE3B-GFP/well for 1 h at 37°C, washed with PBS, and detached by trypsin digestion. […]
# A549 cells [2] = settings: cited from earlier work
# HAdV-C2-dE3B-GFP [3] = assay: quantification of viral protein expression (CMV-GFP, hexon) in infected A549 cells; assay type: cell-based, human adenovirus; settings: 46 hpi, at the tested concentrations
# Protocol: Infection, HAdV hexon immunofluorescence staining, and imaging were performed in technical quadruplicates, as described above for the microscopic plaque assay. Single nuclei (Hoechst) were segmented using CellProfiler ([178]). Median GFP and hexon signals per nucleus were measured, and infected nuclei were classified using the median GFP or hexon signal per nucleus. Subsequently, the mean and standard deviation (SD) over all infected nuclei per well were calculated using R version 3.3.2 ([179]). Data were plotted using GraphPad (version 8.1.2; GraphPad Software, Inc.).
# HAdV-C2-dE3B-GFP [4] = assay: fluorescence-based plaque-forming assay, HeLa cells; assay type: cell-based, human adenovirus; settings: for TI50 (TC50/IC50): HAdV-C2-dE3B-GFP in HeLa, 4 dpi, GFP
# Protocol: (§1) Per 96-well plate, 15,000 A549 cells, 10,000 HeLa cells, 30,000 HBECs, 30,000 HCE cells, or 30,000 CMT-93 cells were seeded in 100 μl of the respective supplemented medium and allowed to settle for 1 h at room temperature (RT) prior to cell culture incubation at 37°C with 5% CO2 and 95% humidity. The following day, the medium was replaced with 50 μl of the respective virus stock dilution giving rise to 5 to 50 plaques per 96-well plate. Fifty microliters of nelfinavir to obtain a 0.1 to 50 μM final concentration or the DMSO solvent control was also added, both in supplemented medium. For each experiment, a noninfected, treated control was performed. For uphill plaque assays, the medium volume was increased to 150 μl with identical virus and drug concentrations. For wash-in/washout experiments, the virus was incubated on cells in supplemented medium for 1 h at 37°C, cells were washed with PBS, and a 100-μl drug dilution in supplemented medium was added. All experiments were performed in four technical replicates or as indicated. Cells were incubated under standard cell culture conditions. At the indicated times postinfection, the cells were fixed, and the nuclei were stained for 1 h at RT by the addition of 33 μl 16% (wt/vol) paraformaldehyde (PFA) and 4 μg/ml Hoechst 33342 (Sigma-Aldrich, St. Louis, MO, USA) in PBS. Cells were washed three times with PBS and stored in PBS supplemented with 0.02% N3 for infections with viruses harboring a GFP transgene. For wild-type (wt) viruses, cells were quenched in PBS supplemented with 50 mM NH4Cl, permeabilized using 0.2% (vol/vol) Triton X-100 in PBS, and blocked with 0.5% (wt/vol) bovine serum albumin (BSA) in PBS. Cells were incubated with 381.7 ng/ml mouse anti-HAdV hexon protein antibody (Mab8052; Sigma-Aldrich, St. Louis, MO, USA) and subsequently stained using 2 μg/ml goat anti-mouse-Alexa Fluor 594 (catalog number A21203 or A32742; Thermo Fisher Scientific, Waltham, MA, USA). Plates were imaged on either an IXM-XL or an IXM-C automated high-throughput fluorescence microscope (Molecular Devices, San Jose, CA, USA) using a 4× objective in wide-field mode. Hoechst staining was recorded in the 4′,6-diamidino-2-phenylindole (DAPI) channel, the fluorescein isothiocyanate (FITC)/GFP channel was acquired for viral GFP, and the tetramethyl rhodamine isothiocyanate (TRITC)/Texas Red channel was acquired for hexon immunofluorescence staining.
# (§2) The infection phenotype for each well was quantified using Plaque2.0 ([101]). The number of plaques was determined based on the infection signal (viral GFP or hexon immunofluorescence staining). Nuclei stained with Hoechst were segmented by using CellProfiler ([178]). Infected nuclei were classified based on the median infection signal per nucleus in CellProfiler. Data were plotted, and the EC50 (infected and treated cells), the TC50 (noninfected, treated cells), as well as the corresponding standard errors (SE) were determined using curve fitting in GraphPad (version 8.1.2; GraphPad Software, Inc.) using three-parameter inhibitor concentration-versus-response nonlinear regression. The mean TI50 was calculated as the […] ratio of the means. The TI50 SE was calculated by error propagation.
# A549 cells [5] = assay: TC50, number of nuclei in noninfected treated cells; assay type: cell-based, human
# Protocol: as §1, with “Cells were incubated with 381.7 ng/ml mouse anti-HAdV hexon protein antibody (Mab8052; Sigma-Aldrich, St. Louis, MO, USA) and subsequently stained using 2 μg/ml goat anti-mouse-Alexa Fluor 594 (catalog number A21203 or A32742; Thermo Fisher Scientific, Waltham, MA, USA).” left out
# as §2, with “Nuclei stained with Hoechst were segmented by using CellProfiler ([178]). Infected nuclei were classified based on the median infection signal per nucleus in CellProfiler.” left out
# MAdV-1-pIX-FS2A-GFP = assay: fluorescence-based plaque-forming assay, CMT-93 cells; assay type: cell-based, mouse adenovirus 1
# Protocol: Per 96-well plate, 15,000 A549 cells, 10,000 HeLa cells, 30,000 HBECs, 30,000 HCE cells, or 30,000 CMT-93 cells were seeded in 100 μl of the respective supplemented medium and allowed to settle for 1 h at room temperature (RT) prior to cell culture incubation at 37°C with 5% CO2 and 95% humidity. The following day, the medium was replaced with 50 μl of the respective virus stock dilution giving rise to 5 to 50 plaques per 96-well plate. Fifty microliters of nelfinavir to obtain a 0.1 to 50 μM final concentration or the DMSO solvent control was also added, both in supplemented medium. For each experiment, a noninfected, treated control was performed. […] Plates were imaged on either an IXM-XL or an IXM-C automated high-throughput fluorescence microscope (Molecular Devices, San Jose, CA, USA) using a 4× objective in wide-field mode. Hoechst staining was recorded in the 4′,6-diamidino-2-phenylindole (DAPI) channel, the fluorescein isothiocyanate (FITC)/GFP channel was acquired for viral GFP, and the tetramethyl rhodamine isothiocyanate (TRITC)/Texas Red channel was acquired for hexon immunofluorescence staining.
# The infection phenotype for each well was quantified using Plaque2.0 ([101]). The number of plaques was determined based on the infection signal (viral GFP or hexon immunofluorescence staining). […] The mean TI50 was calculated as the EC50/TC50 ratio of the means. […]
compound,measurement,setting,value
"Cc1c(O)cccc1C(=O)N[C@@H](CSc1ccccc1)[C@H](O)CN1C[C@H]2CCCC[C@H]2C[C@H]1C(=O)NC(C)(C)C [Nelfinavir, Nelfinavir mesylate]",reduction of total yield of infectious particles in the supernatant,HAdV-C2-dE3B-GFP [1],3 orders of magnitude
same,Toxic,A549 cells [2],no
same,effect on GFP or hexon expression,HAdV-C2-dE3B-GFP [3],no effect
same,TI50 (TC50/IC50),HAdV-C2-dE3B-GFP [4],61.03
same,TI50 (TC50/IC50),HAdV-C2-dE3B-GFP [4]; listed as nelfinavir,61.0
same,pEC50,"HAdV-C2-dE3B-GFP [4]; Human adenovirus sp., HeLa",6.31
same,TC50,"A549 cells [5]; human, 1 days",49.50 µM
same,TC50 (50% loss of cell nuclei),"A549 cells [5]; human, 82 h",10.01 µM
same,TC50,"A549 cells [5]; human, 6 days",19.08 µM
same,TC50,"A549 cells [5]; noninfected A549, nuclei, 3 dpi, line HAdV-C5",11.91 µM
same,TI50 (TC50/IC50),"MAdV-1-pIX-FS2A-GFP; MAdV-1-pIX-FS2A-GFP in CMT-93, 4 dpi, GFP",1.03
same,pEC50,"MAdV-1-pIX-FS2A-GFP; Murine mastadenovirus A, CMT93",4.68
